Laboratory results from patent US11352340B2, “Pyridine and pyridimine compounds as PI3K-gamma inhibitors” (Incyte Corporation, priority 2016, dated 2022).
Counter-ions that a name gives are not always drawn.

Key:
[1] = target: PI3Kγ (p110γ) Recombinant Human Protein (Homo sapiens (Human), UniProt P48736); test: PI3K-γ Scintillation Proximity Assay; assay type: biochemical; settings: read-out: PI3K-gamma SPA IC50
Source text: Example B. PI3K-γ Scintillation Proximity Assay
(§1) [γ-^33P]ATP (10 mCi/mL) and Wheat Germ Agglutinin (WGA) YSi SPA Scintillation Beads was purchased from Perkin-Elmer (Waltham, Mass.). Lipid kinase substrate, D-myo-Phosphatidylinositol 4,5-bisphosphate (PtdIns(4,5)P2)D (+)-sn-1,2-di-O-octanoylglyceryl, 3-O-phospho linked (PIP2), CAS 204858-53-7, was purchased from Echelon Biosciences (Salt Lake City, Utah). PI3Kγ (p110γ) Recombinant Human Protein was purchased from Life technology (Grand Island, N.Y.). ATP, MgCl2, DTT, EDTA, MOPS and CHAPS were purchased from Sigma-Aldrich (St. Louis, Mo.).
(§2) The kinase reaction was conducted in polystyrene 384-well Greiner Bio-one white plate from Thermo Fisher Scientific in a final volume of 25 μL. Inhibitors were first diluted serially in DMSO and added to the plate wells before the addition of other reaction components. The final concentration of DMSO in the assay was 2%. The PI3Kγ assay was carried out at room temperature in 20 mM MOPS, pH 6.7, 10 mM MgCl2, 5 mM DTT and CHAPS 0.03%. Reactions were initiated by the addition of ATP, the final reaction mixture consisted of 20 μM PIP2, 2 μM ATP, 0.5 μCi [γ-^33P] ATP, 13 nM PI3Kγ. Reactions were incubated for 120 min and terminated by the addition of 40 μL SPA beads suspended in quench buffer: 163 mM potassium phosphate pH 7.8, 20% glycerol, 25 mM EDTA. The final concentration of SPA beads is 1.0 mg/mL. After the plate sealing, plates were shaken overnight at room temperature and centrifuged at 1500 rpm for 10 min, the radioactivity of the product was determined by scintillation counting on Topcount (Perkin-Elmer). IC50 determination was performed by fitting the curve of percent of the solvent control activity versus the log of the inhibitor concentration using the GraphPad Prism 6.0 software.

[2] = target: PI3Kδ (p110δ/p85α) Recombinant Human Protein (Homo sapiens (Human), UniProt O00329); test: PI3Kδ Scintillation Proximity Assay; assay type: biochemical; settings: read-out: PI3K-delta SPA IC50
PI3Kδ (p110δ/p85α) Recombinant Human Protein, sequence (O00329 whole entry): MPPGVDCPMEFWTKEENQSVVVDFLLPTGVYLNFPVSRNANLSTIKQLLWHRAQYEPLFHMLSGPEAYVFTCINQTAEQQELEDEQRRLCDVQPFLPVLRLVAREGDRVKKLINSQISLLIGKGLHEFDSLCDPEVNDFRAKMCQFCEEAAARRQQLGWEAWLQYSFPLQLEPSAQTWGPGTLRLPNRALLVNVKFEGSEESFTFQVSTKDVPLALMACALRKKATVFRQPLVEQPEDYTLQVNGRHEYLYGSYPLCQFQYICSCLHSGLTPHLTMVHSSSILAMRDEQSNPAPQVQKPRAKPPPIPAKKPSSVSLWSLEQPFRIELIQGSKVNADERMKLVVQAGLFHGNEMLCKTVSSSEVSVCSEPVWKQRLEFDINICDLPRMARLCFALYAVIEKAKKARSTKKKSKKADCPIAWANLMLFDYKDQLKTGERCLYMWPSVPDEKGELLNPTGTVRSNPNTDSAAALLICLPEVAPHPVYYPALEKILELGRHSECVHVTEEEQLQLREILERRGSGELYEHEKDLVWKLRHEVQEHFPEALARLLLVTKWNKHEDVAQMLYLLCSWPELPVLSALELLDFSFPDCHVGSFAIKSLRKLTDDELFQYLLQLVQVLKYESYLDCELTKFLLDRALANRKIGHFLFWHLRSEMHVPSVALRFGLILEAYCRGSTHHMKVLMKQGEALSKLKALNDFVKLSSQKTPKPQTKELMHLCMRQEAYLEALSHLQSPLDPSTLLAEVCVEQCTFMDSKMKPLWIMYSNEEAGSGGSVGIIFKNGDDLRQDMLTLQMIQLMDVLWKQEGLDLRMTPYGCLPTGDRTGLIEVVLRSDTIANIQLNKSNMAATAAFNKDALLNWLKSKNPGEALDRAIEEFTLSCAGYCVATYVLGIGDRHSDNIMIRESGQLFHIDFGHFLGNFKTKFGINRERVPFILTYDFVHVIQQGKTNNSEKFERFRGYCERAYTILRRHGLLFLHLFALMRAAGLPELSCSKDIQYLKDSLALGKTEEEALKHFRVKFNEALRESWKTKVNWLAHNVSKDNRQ
PI3Kδ (p110δ/p85α) Recombinant Human Protein, sequence (P27986 whole entry partner): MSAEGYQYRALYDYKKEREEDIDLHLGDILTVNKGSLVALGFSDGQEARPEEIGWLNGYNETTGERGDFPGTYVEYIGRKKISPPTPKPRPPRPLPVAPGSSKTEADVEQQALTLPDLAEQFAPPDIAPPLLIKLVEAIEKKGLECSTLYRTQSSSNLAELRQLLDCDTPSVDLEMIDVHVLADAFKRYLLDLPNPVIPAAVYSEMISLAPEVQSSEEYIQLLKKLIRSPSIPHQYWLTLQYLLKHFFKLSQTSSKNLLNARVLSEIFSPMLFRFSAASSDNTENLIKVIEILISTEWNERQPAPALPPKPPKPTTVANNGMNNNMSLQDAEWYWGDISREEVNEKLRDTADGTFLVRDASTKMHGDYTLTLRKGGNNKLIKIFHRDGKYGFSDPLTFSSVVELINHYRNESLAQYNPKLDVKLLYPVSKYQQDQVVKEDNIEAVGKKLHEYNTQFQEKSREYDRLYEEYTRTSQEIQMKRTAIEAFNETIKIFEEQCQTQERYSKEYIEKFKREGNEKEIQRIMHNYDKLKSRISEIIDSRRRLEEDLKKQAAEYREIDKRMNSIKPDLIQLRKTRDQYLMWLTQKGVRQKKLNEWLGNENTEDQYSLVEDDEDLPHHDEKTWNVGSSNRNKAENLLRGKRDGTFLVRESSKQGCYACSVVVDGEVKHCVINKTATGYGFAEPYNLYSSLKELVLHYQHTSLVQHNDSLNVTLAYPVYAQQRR
Source text: Example C. PI3Kδ Scintillation Proximity Assay
as §1, with “PI3Kδ (p110δ/p85α)” for “PI3Kγ (p110γ)”, “Eurofins (St Charles, Mo.).” for “Life technology (Grand Island, N.Y.).”
as §2, with “PI3Kδ” for “PI3Kγ”, “3.4” for “13”, “PI3Kδ.” for “PI3Kγ.”

PI3Kγ (p110γ) Recombinant Human Protein, sequence (P48736 whole entry): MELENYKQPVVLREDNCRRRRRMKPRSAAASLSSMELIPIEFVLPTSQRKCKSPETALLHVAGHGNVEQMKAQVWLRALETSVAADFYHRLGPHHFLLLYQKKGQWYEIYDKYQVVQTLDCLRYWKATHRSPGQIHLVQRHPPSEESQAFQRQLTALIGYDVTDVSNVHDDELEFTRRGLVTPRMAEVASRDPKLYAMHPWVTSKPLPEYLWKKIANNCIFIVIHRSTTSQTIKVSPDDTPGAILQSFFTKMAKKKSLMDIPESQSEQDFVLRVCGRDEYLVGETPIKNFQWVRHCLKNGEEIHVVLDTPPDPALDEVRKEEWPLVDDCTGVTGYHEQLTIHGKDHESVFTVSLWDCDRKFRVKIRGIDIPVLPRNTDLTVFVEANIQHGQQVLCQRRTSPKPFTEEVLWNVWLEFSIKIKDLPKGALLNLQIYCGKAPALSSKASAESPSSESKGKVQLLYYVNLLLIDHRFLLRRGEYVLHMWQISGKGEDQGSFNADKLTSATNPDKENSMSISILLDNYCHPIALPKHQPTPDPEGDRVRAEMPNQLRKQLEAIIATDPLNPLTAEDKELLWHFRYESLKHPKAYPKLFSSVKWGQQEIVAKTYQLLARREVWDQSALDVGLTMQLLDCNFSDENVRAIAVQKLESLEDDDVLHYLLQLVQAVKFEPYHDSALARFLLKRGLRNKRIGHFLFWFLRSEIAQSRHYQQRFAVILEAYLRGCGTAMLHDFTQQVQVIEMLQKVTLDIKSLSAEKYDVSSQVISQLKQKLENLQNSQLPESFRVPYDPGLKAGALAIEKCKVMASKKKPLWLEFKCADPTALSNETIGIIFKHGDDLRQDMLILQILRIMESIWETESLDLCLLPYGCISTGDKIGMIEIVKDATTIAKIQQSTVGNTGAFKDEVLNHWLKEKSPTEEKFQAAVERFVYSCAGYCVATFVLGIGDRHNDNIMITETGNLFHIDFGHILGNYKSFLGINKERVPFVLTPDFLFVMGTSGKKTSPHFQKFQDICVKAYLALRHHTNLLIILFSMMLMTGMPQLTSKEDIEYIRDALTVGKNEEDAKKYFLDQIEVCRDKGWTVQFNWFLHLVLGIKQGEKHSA

| Compound | IC50 [1] [nM] | IC50 [2] [nM] |
| --- | --- | --- |
| COc1cncc(-c2cc(-c3nc4ccccc4[nH]3)ncn2)c1 [Example 95, trifluoroacetate salt] | > 500 | > 500 |
| CCc1cnc(-c2cc(-c3cncc(N4CCOCC4)c3)ccn2)[nH]1 [Example 100, 4-(2′-(5-Ethyl-1H-imidazol-2-yl)-3,4′-bipyridin-5-yl)morpholine trifluoroacetate salt] | ≤ 500 | ≤ 500 |
| CC(C)c1cnc(-c2cc(-c3cncc(N4CCOCC4)c3)ccn2)[nH]1 [Example 101, 4-(2′-(5-Isopropyl-1H-imidazol-2-yl)-3,4′-bipyridin-5-yl)morpholine trifluoroacetate salt] | ≤ 500 | ≤ 500 |
| CC(C)(C)OC(=O)Nc1cncc(-c2ccnc(-c3ncc(-c4ccccc4)[nH]3)c2)c1 [Example 126, tert-Butyl [2′-(5-phenyl-1H-imidazol-2-yl)-3,4′-bipyridin-5-yl]carbamate] | ≤ 500 | ≤ 500 |
| O=C(Nc1cncc(-c2ccnc(-c3ncc(-c4ccccc4)[nH]3)c2)c1)c1ccccc1 [Example 132, N-(2′-(5-Phenyl-1H-imidazol-2-yl)-3,4′-bipyridin-5-yl)benzamide] | ≤ 500 | ≤ 500 |
| O=C(Nc1cncc(-c2ccnc(-c3ncc(-c4ccccc4)[nH]3)c2)c1)c1ccccc1Cl [Example 133, 2-Chloro-N-(2′-(5-phenyl-1H-imidazol-2-yl)-3,4′-bipyridin-5-yl)benzamide] | ≤ 500 | ≤ 100 |
| O=C(Nc1cncc(-c2ccnc(-c3ncc(-c4ccccc4)[nH]3)c2)c1)c1cccc(Cl)c1 [Example 134, 3-Chloro-N-(2′-(5-phenyl-1H-imidazol-2-yl)-3,4′-bipyridin-5-yl)benzamide] | > 500 | > 500 |
| O=C(Nc1cncc(-c2ccnc(-c3ncc(-c4ccccc4)[nH]3)c2)c1)c1ccc(Cl)cc1 [Example 135, 4-Chloro-N-(2′-(5-phenyl-1H-imidazol-2-yl)-3,4′-bipyridin-5-yl)benzamide] | > 500 | ≤ 500 |
| N#Cc1cccc(C(=O)Nc2cncc(-c3ccnc(-c4ncc(-c5ccccc5)[nH]4)c3)c2)c1 [Example 136, 3-Cyano-N-(2′-(5-phenyl-1H-imidazol-2-yl)-3,4′-bipyridin-5-yl)benzamide] | ≤ 500 | ≤ 500 |
| N#Cc1ccc(C(=O)Nc2cncc(-c3ccnc(-c4ncc(-c5ccccc5)[nH]4)c3)c2)cc1 [Example 137, 4-Cyano-N-(2′-(5-phenyl-1H-imidazol-2-yl)-3,4′-bipyridin-5-yl)benzamide] | ≤ 500 | ≤ 500 |
| CCNC(=O)Nc1cncc(-c2ccnc(-c3ncc(-c4ccccc4)[nH]3)c2)c1 [Example 139, N-Ethyl-N′-[2′-(5-phenyl-1H-imidazol-2-yl)-3,4′-bipyridin-5-yl]urea Trifluoroacetate Salt] | ≤ 500 | ≤ 100 |
| CCOC(=O)Nc1cncc(-c2ccnc(-c3ncc(-c4ccccc4)[nH]3)c2)c1 [Example 140, Ethyl 2′-(5-phenyl-1H-imidazol-2-yl)-3,4′-bipyridin-5-ylcarbamate Trifluoroacetate Salt] | ≤ 100 | ≤ 50 |
| CN1CCC(Nc2cncc(-c3ccnc(-c4ncc(-c5ccccc5)[nH]4)c3)c2)CC1 [Example 143, N-(1-Methylpiperidin-4-yl)-2′-(5-phenyl-1H-imidazol-2-yl)-3,4′-bipyridin-5-amine trifluoroacetate salt] | ≤ 100 | ≤ 100 |
| CN1CCC(CNc2cncc(-c3ccnc(-c4ncc(-c5ccccc5)[nH]4)c3)c2)CC1 [Example 144, N-((1-Methylpiperidin-4-yl)methyl)-2′-(5-phenyl-1H-imidazol-2-yl)-3,4′-bipyridin-5-amine trifluoroacetate salt] | ≤ 100 | ≤ 100 |

The remaining lines, values ahead:

| IC50 [1] [nM] | IC50 [2] [nM] | Compound |
| --- | --- | --- |
| > 500 | > 500 | CCOC(=O)c1nc(-c2cc(-c3cncc(OC)c3)ccn2)[nH]c1C(F)(F)F [Example 80, Ethyl 2-(5-methoxy-3,4′-bipyridin-2′-yl)-5-(trifluoromethyl)-1H-imidazole-4-carboxylate] |
| > 500 | > 500 | COc1cncc(-c2ccnc(-c3nc(C(=O)O)c(C(F)(F)F)[nH]3)c2)c1 [Example 81, 2-(5-Methoxy-3,4′-bipyridin-2′-yl)-5-(trifluoromethyl)-1H-imidazole-4-carboxylic acid trifluoroacetate salt] |
| ≤ 500 | ≤ 500 | Cc1nc(-c2cc(-c3cncc(NC(=O)OC(C)(C)C)c3)ccn2)[nH]c1C [Example 128, tert-Butyl [2′-(4,5-dimethyl-1H-imidazol-2-yl)-3,4′-bipyridin-5-yl]carbamate] |
| ≤ 100 | ≤ 500 | Cc1nc(-c2cc(-c3cncc(N)c3)ccn2)[nH]c1C [Example 129, 2′-(4,5-Dimethyl-1H-imidazol-2-yl)-3,4′-bipyridin-5-amine] |
| ≤ 50 | ≤ 500 | Cc1nc(-c2cc(-c3cncc(NCC4CCOCC4)c3)ccn2)[nH]c1C [Example 145, 2′-(4,5-Dimethyl-1H-imidazol-2-yl)-N-(tetrahydro-2H-pyran-4-ylmethyl)-3,4′-bipyridin-5-amine] |
| ≤ 500 | ≤ 500 | Cc1nc(-c2cc(-c3cncc(C(=O)N4CCN(C)CC4)c3)ccn2)[nH]c1C [Example 147, (2′-(4,5-Dimethyl-1H-imidazol-2-yl)-3,4′-bipyridin-5-yl)(4-methylpiperazin-1-yl)methanone] |
| ≤ 100 | ≤ 500 | Cc1nc(-c2cc(-c3cncc(C(=O)N4CCOCC4)c3)ccn2)[nH]c1C [Example 148, (2′-(4,5-Dimethyl-1H-imidazol-2-yl)-3,4′-bipyridin-5-yl)(morpholino)methanone] |
| ≤ 100 | > 500 | Cc1nc(-c2cc(-c3cncc(C(=O)NCCCN(C)C)c3)ccn2)[nH]c1C [Example 149, 2′-(4,5-Dimethyl-1H-imidazol-2-yl)-N-(3-(dimethylamino)propyl)-3,4′-bipyridine-5-carboxamide] |
| ≤ 500 | ≤ 100 | Cc1nc(-c2cc(-c3cncc(C(=O)N4CCN(C(N)=O)CC4)c3)ccn2)[nH]c1C [Example 150, 4-(2′-(4,5-Dimethyl-1H-imidazol-2-yl)-3,4′-bipyridine-5-carbonyl)piperazine-1-carboxamide] |
| ≤ 500 | ≤ 500 | Cc1nc(-c2cc(-c3cncc(C(=O)NCC4CCOCC4)c3)ccn2)[nH]c1C [Example 162, 2′-(4,5-Dimethyl-1H-imidazol-2-yl)-N-((tetrahydro-2H-pyran-4-yl)methyl)-3,4′-bipyridine-5-carboxamide trifluoroacetate salt] |
| ≤ 500 | ≤ 50 | Cc1nc(-c2cc(-c3cncc(C(=O)NCCC4CCOCC4)c3)ccn2)[nH]c1C [Example 164, 2′-(4,5-Dimethyl-1H-imidazol-2-yl)-N-(2-(tetrahydro-2H-pyran-4-yl)ethyl)-3,4′-bipyridine-5-carboxamide trifluoroacetate salt] |
| ≤ 100 | ≤ 50 | COCCNC(=O)c1cncc(-c2ccnc(-c3nc(C)c(C)[nH]3)c2)c1 [Example 166, 2′-(4,5-Dimethyl-1H-imidazol-2-yl)-N-(2-methoxyethyl)-3,4′-bipyridine-5-carboxamide trifluoroacetate salt] |
